By melting point is commonly meant the temperature, or range, at which the solid turns liquid.

Regarding `CN1Cc2cc3ccc4c(c3c(-c3ccc5c(c3)OCO5)c2C1=O)OCO4`, the melting point fell in the range of 242 to 244 °C.

`COc1cc2c(cc1OC)C(N1CCN(c3ccc4c(c3)CCC(=O)N4)CC1)=NCC2` yielded a melting point of 70 to 75 °C.

For the compound `CCOC(=O)Cc1ccccc1Oc1ccc(COc2cc(CC)nc3c2CCCC3)cc1`, the melting point lay within 89 to 90 °C.

For `N#Cc1csc([N+](=O)[O-])c1Br`, the melting point lay within 176 to 178 °C.

As to `O=C(O)CCCCCCCCc1ccc(O)cc1`, the melting point was in the range of 103 to 105 °C.

The compound `O=[N+]([O-])c1ccc(NCCc2c[nH]cn2)nc1` registered a melting point of 162 to 163 °C.

With `CS(=O)(=O)Nc1ccccc1OCCCN1CCC(OC(c2ccccc2)c2ccccc2)CC1`, the melting point was 106 to 107 °C.

Take `O=C(Nc1ccccc1)N1CC2CC(CN(Cc3ccc(Cl)cc3)C2)C1`: the melting point was determined as 187 °C.

The compound `N#Cc1ccccc1N1CCN(Cc2cn3cc(Cl)ccc3n2)CC1` yielded a melting point of 167 to 169 °C.

`Cc1cc(C(=CC(=O)c2ccc(Cl)cc2)C(F)(F)F)ccc1NC(=O)OC(C)(C)C` had a melting point of 72 to 74 °C.

As for `Cc1cc(-n2ccnc2)c2cccc(OCc3c(Cl)ccc(S(=O)(=O)N4CCC(CO)CC4)c3Cl)c2n1`, the melting point came out at 100 °C.

For `CCCCOc1c2ccccc2nc2c1c(C)nn2-c1ccccn1`, the melting point was in the range of 59 to 61 °C.

Regarding `COc1cc2c(cc1O)CCN(Cc1cccc(Oc3ccccc3)c1)C2`, the melting point was in the range of 139 to 140 °C.

The compound `Nc1cccc(C(=O)Nc2ccc(-c3c[nH]c(=O)cn3)cc2)c1` returned a melting point of more than 250 °C.

For `COc1ccccc1N1CCN(CCCNC(=O)c2cccc3c(=O)c(C)c(C4(c5ccccc5)CCCC4)oc23)CC1`, the melting point lay within 171 to 172 °C.

`COc1cc(Nc2nccc(Nc3cccc(CCO)c3)n2)cc(OC)c1OC` had a melting point of 72 °C.

Compound `CCN(CC)Cc1cc(/C=C/C(=O)Nc2ccccc2C(=O)O)ccc1OC` had a melting point of 202 to 205 °C.

`Cc1c(C(O)c2ccccc2)nc2n1CCc1ccccc1C2OC1CCN(C)CC1` (configuration not stated) returned a melting point of 85 °C.

The compound `Cc1cccc(C(O)CNC(N)=C(CCSCc2cc(C)c(CN(C)C)s2)[N+](=O)[O-])c1` (configuration not stated) had a melting point of 88 to 89 °C.

As to `O=C(O)Cc1cc2c(s1)-c1ccccc1CC2`, the melting point was 103 to 105 °C.

As to `O=C(C=Cc1cc(O)c(O)c([N+](=O)[O-])c1)c1ccccc1`, the melting point fell in the range of 192 to 195 °C.

Regarding `N#Cc1cc(I)c(N)c(C(F)(F)F)c1`, the melting point lay within 86 to 88 °C.

In the case of `CCCc1ccc2oc(C(=O)c3ccncc3)c(C)c2c1O`, the melting point lay in the range of 203 to 205 °C.

`CCC[C@H]1CC[C@H](c2ccc(OCC)c(C=O)c2)CC1`: the melting point was determined as 32 °C.

For the compound `Fc1ccc(-c2cn3c(n2)SCC3)cc1`, the melting point is 116 to 118 °C.

`N#CN=C(Nc1cccnc1)NC1(c2cccc(Cl)c2)CCC1` returned a melting point of 102 to 104 °C.

`Cc1ccc(NCCSC#N)c([N+](=O)[O-])c1` had a melting point of 123 to 125 °C.

On to `O=C(NCCc1ccccn1)c1ccc2cc(C(=O)N3CC(CCl)c4ccc([N+](=O)[O-])cc43)[nH]c2c1` (configuration not stated), for which the melting point lay within 204 to 207 °C.

Compound `COc1ccc(-c2nc3cc(Cl)c(Cl)cc3n2C(=O)OCc2ccccc2)cc1[N+](=O)[O-]` returned a melting point of 212 to 214 °C.

The compound `Nc1ccc(C(=O)N2CCOCC2)cc1[N+](=O)[O-]` had a melting point of 184 to 189 °C.

`CCOP(=O)(CCOC(=O)c1c(I)c(NC(C)=O)c(I)c(NC(C)=O)c1I)OCC` had a melting point of 249 to 251 °C.

In turn, `CCc1ccc(C)c(S(=O)(=O)NC(=O)n2nc(C)n(C)c2=O)c1` registered a melting point of 145 °C.

As for `CCNc1ccccc1S(=O)(=O)C[N+](=O)[O-]`, the melting point came to 82 °C.

Compound `CC(C)N1CC(=O)N(c2ccc(O)cc2F)C1=O` yielded a melting point of 190 to 192 °C.

Turning to `COc1ccc2nc3ccc(OC)cc3c(Nc3cccc(COC(=O)NC(C)C)c3)c2c1`, the melting point fell in the range of 148 to 149 °C.

The compound `CCCC[Si](C)(C)CCSCCNC(=O)n1cc(F)c(=O)[nH]c1=O` displayed a melting point of 71 to 72 °C.

Turning to `O=C(O)c1sccc1SSc1ccsc1C(=O)O`, the melting point fell in the range of 256 to 257 °C.

`COC(=O)C(C(=O)OC)c1cccc2c1NC(=O)C2` showed a melting point of 161 to 162 °C.

As for `O=S(=O)(c1ccc(Br)cc1)N1CCCC1c1ccc(F)cc1` (racemic), the melting point amounted to 131 °C.

`CCOC(=O)c1ccc(-c2ccc(OCCCNC)c(-c3ccc4c(c3)C(C)(C)CCC4(C)C)c2)cc1` returned a melting point of 141 °C.

Compound `COC(=O)CCNc1ccccc1CNC(=O)C1Cc2ccccc2N1S(=O)(=O)c1ccc(-c2ccc(F)cc2OC)cc1` (configuration not stated) gave a melting point of 78 to 80 °C.

`N#Cc1ccc(-c2nc(COc3ccc(CCCn4ccnc4)cc3)co2)cc1` registered a melting point of 98 to 99 °C.

In turn, `CCOC(=O)c1cc(=O)c2cccc(NC(=O)c3ccc4c(c3)CC(COCc3ccccc3)O4)c2o1` (configuration not stated) gave a melting point of 166 to 168 °C.

`CN(CCO)Cc1ccc2c(c1)c(=O)c(C(=O)NCc1ccc(Cl)cc1)cn2C` had a melting point of 130 to 131 °C.

For the compound `Cc1cccc2c1nc(COc1ccc(Cl)cc1)n2CCC(C)C(=O)N1CCCC1` (racemic), the melting point was 140 to 142 °C.

Take `CC(C)COC(=O)[C@H](CC(=O)OCc1ccccc1)NC(=O)CCCCNC(=O)OC(C)(C)C`: the melting point was 64 to 66 °C.

`Nc1c(F)c(N2C[C@@H]3CCCN[C@@H]3C2)c(F)c2c1c(=O)c(C(=O)O)cn2[C@@H]1C[C@@H]1F`: the melting point fell in the range of 145 to 149 °C.

The compound `N#Cc1c[nH]c(C(F)(F)F)c1-c1ccc(Cl)cc1` returned a melting point of 114 to 115 °C.

As for `Oc1ccc2c(c1)CCCC2n1cc[nH]c1=S` (configuration not stated), the melting point lay within 213 to 215 °C.

Take `Oc1nnc2ccc3ccccc3n12`: the melting point stood at 134 °C.

In turn, `Oc1ccc2c(c1)CCCC(c1ccccc1)=C2c1ccc(OCCCCCSCCCC(F)(F)C(F)(F)F)cc1` had a melting point of 167 to 168 °C.

Regarding `COc1cc(Nc2c(C#N)cnc3ccc(Br)cc23)c(Cl)cc1Cl`, the melting point lay within 232 to 234 °C.

In the case of `COc1ccc(CN2CCSC2=O)cc1`, the melting point lay in the range of 84 to 86 °C.

On to `COC(=O)c1cn2c(C)csc2n1`, for which the melting point lay within 170 to 173 °C.

The compound `COCC(C)Nc1nccc(Oc2ccc(NC(=O)c3cc(F)cc(N4CCCCC4)c3)c3ccccc23)n1` (configuration not stated) showed a melting point of 94 to 95 °C.

`CC(C)C(C(=O)O)c1ccc2sccc2c1` (configuration not stated) registered a melting point of 150 to 151 °C.

The compound `COc1ccc2c(c1Br)CCC1C(=O)NC(=O)C21` (configuration not stated) had a melting point of 243 to 245 °C.

With `CC(=O)Sc1ccc(C#C[Si](C)(C)C)cc1`, the melting point was in the range of 45 to 47 °C.

The compound `Cc1ccc(C(=O)N2CCOCC2)cc1[N+](=O)[O-]` came in with a melting point of 108 to 110 °C.

With `COc1cc(COc2nn(Cc3ccccc3)cc2CC(=O)O)ccc1OCc1nc(-c2ccccc2)oc1C`, the melting point fell in the range of 99 to 100 °C.

The compound `CCc1nc2c(cnn2CC)c(NC2CCOCC2)c1CNC(=O)c1cc(C)cc(C(=O)NCc2cccc(Br)c2)c1` had a melting point of 116 to 118 °C.

The compound `COc1ccccc1-n1cnc2cc(N)ccc21` gave a melting point of 48 to 50 °C.

In the case of `CCC1(CC)OC(=O)C(Cn2cncn2)(c2ccc(Cl)cc2)O1` (configuration not stated), the melting point fell in the range of 105 to 108 °C.

Turning to `O=C1Nc2cc(F)ccc2Nc2ccsc21`, the melting point was in the range of 225 to 230 °C.

Regarding `COC(C)Cc1nc2c(N)nc3ccccc3c2n1CC(C)C` (configuration not stated), the melting point was 139 to 141 °C.

Turning to `C[C@H](C#Cc1sc(Cc2ccc(F)cc2)cc1Cl)N(O)C(N)=O`, the melting point is 131 to 132 °C.

Regarding `COc1nc(NC(=O)NS(=O)(=O)c2cscc2C)nc(OC)n1`, the melting point lay within 154 to 156 °C.

In turn, `CC(C)c1cnc(NC(=O)Nc2cccc(N)c2)s1` showed a melting point of 113 to 115 °C.

Consider `O=[N+]([O-])c1ccc2c(c1)N=Cc1ccccc1O2`, for which the melting point lay in the range of 179 to 181 °C.

As for `N#CCCNC(=O)c1cccc(-c2ccc3occ(-c4ccc(Cl)cc4Cl)c3c2)c1`, the melting point fell in the range of 159 to 161 °C.

`Cn1c(-c2ccc(-c3ccco3)cc2)cnc1[C@H](Cc1ccccn1)N(C=O)OC(C)(C)C` gave a melting point of 131 to 135 °C.

`O=S(=O)(c1ccc(Cn2cnnn2)cc1)C1CCN(CCc2ccc(F)cc2F)CC1`: the melting point was 168 to 169 °C.

`COC1(c2cccc(S(=O)(=O)c3ccc4c(c3)sc(=O)n4C)c2)CCOCC1` registered a melting point of 174 to 176 °C.

In turn, `CSCc1nc(C(C)(C)O)c(C(=O)O)n1Cc1ccc(-c2ccccc2-c2nnn[nH]2)cc1` had a melting point of 172 to 181 °C.

On to `Nc1nnc2c3c(c(Cl)nn12)CCCC3`, for which the melting point lay within 224 to 225 °C.

Compound `CC(C)(C)OC(=O)NC1CCCCCC=CC2CC2(C(=O)NS(=O)(=O)C2CC2)NC(=O)C2CC(OC(=O)c3ccccc3)CN2C1=O` (configuration not stated) registered a melting point of 140 to 142 °C.

Compound `Nc1ncnc2sc(Cc3cccnc3)c(-c3ccc(NC(=O)Nc4cccc(Cl)c4)cc3)c12` displayed a melting point of 169 to 172 °C.

`O=c1[nH]c2ccc(S(=O)(=O)O)cc2[nH]c1=O` yielded a melting point of more than 300 °C.

Regarding `CCc1cc([N+](=O)[O-])c(Cl)c([N+](=O)[O-])c1COC`, the melting point was in the range of 81 to 82 °C.

Compound `CCCC1(CC(=O)OC)CCCc2c1[nH]c1cc(Br)ccc21` (configuration not stated) returned a melting point of 198 °C.

As to `Cc1noc(NS(=O)(=O)c2ccccc2-c2ccc(-c3ncco3)cc2Cn2cccn2)c1C`, the melting point was 140 to 146 °C.

Regarding `O=C(CS)N[C@@H](CS)C(=O)O`, the melting point amounted to 121 °C.

`CN(C)S(=O)(=O)c1cc(-c2csc(=Nc3ccc4c(c3)OCO4)n2C)ccc1Cl` gave a melting point of 171 to 173 °C.

Take `Cn1nc(-c2ccc(Cl)cc2)nc1-c1ccncc1`: the melting point was 191 °C.

In the case of `CC(C)(C)c1cc(CP(=O)(Oc2ccccc2)Oc2ccccc2)cc(C(C)(C)C)c1O`, the melting point is 130 °C.

Regarding `COCOc1cc([N+](=O)[O-])c(F)cc1Cl`, the melting point is 78 to 80 °C.

Take `Cc1ccc(/C=C/c2nc(COc3ccc(CCCCn4ccnn4)cc3)co2)cc1`: the melting point lay within 154 to 155 °C.

For the origin of these results see a melting point compilation (Tetko et al.; mined from patent text by program, amines drawn as free bases though some values may be those of a salt).
